Non-standard residues stand in square brackets, D forms with d. Residues, ends and D or L forms follow the SMILES beside them. sY = N[C@@H](Cc1ccc(OS(=O)(=O)O)cc1)C(=O)O
How the values were obtained:
[1] = tested on: secretion of gastric acid; conditions: i.v. at low dosages; cited from earlier work
muscle sphincter Oddii = conditions: cited from earlier work
mouse = experiment: anticonvulsive effect against picrotoxin-induced seizures in the mouse; type: in vivo; conditions: peptide about 0.8 micromoles per kg parenterally, then picrotoxin i.p., relative to CCK(1-8) = 100%
Experimental: The anticonvulsive effect is measured by the method as generally described in The European J. of Pharm., 65, 297 (1980). More specifically, a mouse is first injected parenterally with the peptide being tested with a single dose equal to about 0.8 micromoles per kilogram of body weight. Thereafter, picrotoxin is injected i.p. in an amount equal to about […] of body weight. The parameters that are measured: time until first tremor, time until first clonic seizure, time until first tonic seizure and time of latentia until death, measured from the time of injection of the picrotoxin.

[2] = Ondetti and Pluscec; cited from earlier work
perfused rat stomach = experiment: gastrinic activity on perfused rat stomach, conductometric titration of HCl liberated after iv administration; type: in vivo
Experimental: (§1) To determine the effectiveness of the various synthetic peptides, they are tested for their ability to stimulate the contraction of the gall bladder, for gastrinic activity in the stomach and for their anticonvulsive effect. Certain well known tests are carried out, and the results are measured and compared to the activity of CCK(1-8). Some of the results are given as a percentage relative to the activity of CCK(1-8). The ability to stimulate the contraction of the gall bladder is measured using a modified method of Amer and Becvar, described in J. Endocrinology, 43, 637 (1969) and employing isolated strips of rabbit gall bladder.

[3] = tested on: isolated strips of rabbit gall bladder; experiment: contraction of the gall bladder (CCK-activity), isolated strips of rabbit gall bladder; type: cell-based
Experimental: as §1

Compound	gastrinic activity in causing secretion of gastric acid [1]	action on the muscle sphincter Oddii (muscle sphincter Oddii)	Delay until first tonic seizure (efficacy) (mouse) [%]	Delay until time of death (efficacy) (mouse) [%]	activity compared with the complete molecule of cholecystokinin-pancreozymin [2]	gastrinic activity % /Pentagastrin 100%/ (perfused rat stomach; relative to pentagastrin = 100%, perfused rat stomach, iv) [%]	CCK-activity % /CCK (1-8) 100%/ ([3]; relative to CCK(1-8) = 100%, contraction of isolated rabbit gall bladder strips) [%]	gastrinic activity (perfused rat stomach; result in words)	CCK activity compared with CCK(1-8) ([3]; result in words)
CSCC[C@H](NC(=O)[C@H](Cc1ccc(OS(=O)(=O)O)cc1)NC(=O)[C@@H](N)CC(=O)O)C(=O)NCC(=O)N[C@@H](Cc1c[nH]c2ccccc12)C(=O)N[C@@H](CCSC)C(=O)N[C@@H](CC(=O)O)C(=O)N[C@@H](Cc1ccccc1)C(N)=O [CCK (1-8)]	some gastrinic activity	strong relaxing action	100	100	considerably higher activity than the complete molecule of cholecystokinin-pancreozymin	–	–	–	–
CSCC[C@H](NC(=O)[C@H](Cc1c[nH]c2ccccc12)NC(=O)[C@@H](C)NC(=O)[C@H](CCSC)NC(=O)[C@H](Cc1ccc(OS(=O)(=O)O)cc1)NC(C)=O)C(=O)N[C@@H](CC(=O)O)C(=O)N[C@@H](Cc1ccccc1)C(N)=O [[D-Ala^4]-Ac-CCK (2-8), Ac--Tyr(OSO3 Na)--Met--D--Ala--Trp--Met--Asp--Phe--NH2] (Ac-[sY]M[dA]WMDF-NH2)	–	–	100	126	–	0	40	–	–
H--Asp--Tyr(OSO3 Na)--Nle--Gly--Trp--Nle--Hyp(OSO3 Na)--Tyr(OCH3)--NH2	–	–	–	–	–	–	–	substantially no gastrinic activity	CCK activity significantly greater than CCK(1-8)
